Source: ChEMBL document CHEMBL5357006, “Pestanoid A, a Rearranged Pimarane Diterpenoid Osteoclastogenesis Inhibitor from a Marine Mesophotic Zone Chalinidae Sponge-Associated Fungus, Pestalotiopsis sp. NBUF145” (J Nat Prod, 2024)
The source made the active and inactive calls. No cut-off for these calls is given here.

What was measured:
[1] = tested on: Monocyte; test: Anti-osteoclastogensis in C57BL/6 mouse bone marrow monocytes assessed as inhibition of RANKL/M-CSF induced osteoclastogenesis at 10 uM incubated for 5 days relative to control; type: functional; settings: C57BL/6, Monocyte, 120 h, time 5 day
[2] = Selectivity index, ratio of CC50 for cytotoxicity against C57BL/6 mouse bone marrow monocytes to IC50 for anti-osteoclastogensis in C57BL/6 mouse bone marrow monocytes assessed as inhibition of RANKL/M-CSF induced osteoclastogenesis; type: cell-based, Monocyte; settings: read-out: Ratio CC50/IC50
[3] = tested on: Monocyte; test: Anti-osteoclastogensis in C57BL/6 mouse bone marrow monocytes assessed as inhibition of RANKL/M-CSF induced osteoclastogenesis at 10 uM incubated for 5 days; type: functional, cell-based; settings: C57BL/6, Monocyte, 120 h
[4] = tested on: RAW264.7; test: Inhibition of RANKL-induced NFkappaB signaling in mouse RAW264.7 cells assessed as inhibition of NFkappab nuclear translocation at 10 uM incubated for 60 mins in presence of RANKL by Western blot analysis; type: cell-based
[5] = tested on: RAW264.7; test: Inhibition of RANKL-induced MAPK signaling in mouse RAW264.7 cells assessed as inhibition of ERK1/2 phosphorylation incubated for 60 mins in presence of RANKL by Western blot analysis; type: cell-based; settings: dose 5-10 µM
[6] = tested on: RAW264.7; test: Inhibition of RANKL-induced MAPK signaling in mouse RAW264.7 cells assessed as inhibition of JNK1/2 phosphorylation incubated for 60 mins in presence of RANKL by Western blot analysis; type: cell-based; settings: dose 5-10 µM
[7] = Cytotoxicity against C57BL/6 mouse bone marrow monocytes assessed as reduction in cell viability incubated for 48 hrs by MTT assay; type: toxicity, cell-based, Monocyte
[8] = tested on: RAW264.7; test: Inhibition of RANKL-induced MAPK signaling in mouse RAW264.7 cells assessed as inhibition of p38 phosphorylation incubated for 60 mins in presence of RANKL by Western blot analysis; type: cell-based; settings: dose 5-10 µM

SMILES | inhibition at 10 µM [1] | selectivity ratio [2] | IC50 [3] | inhibition [4] | inhibition [5] | inhibition [6] | CC50 at 48 h [7] | inhibition [8]
C=C1CC[C@@H]2OC(=O)C=C(C[C@]3(C)CC(=O)O[C@H]3CO)C(=O)[C@]2(C)[C@@H]1C | 75% | > 7 | 4.2 µM | Active | Dose-Dependent Effect | Dose-Dependent Effect | > 30 µM | Dose-Dependent Effect
C=C[C@@]1(C)CC(=O)O[C@H]1C1=CC[C@H]2C(C)(C)CC[C@H](O)[C@]2(C)C1=O | 88.4% | > 10 | 3 µM | Active | Dose-Dependent Effect | Dose-Dependent Effect | > 30 µM | Dose-Dependent Effect
